Data as given in ChEMBL document CHEMBL3885861, “Open TG-GATES”.

Organism: Rattus norvegicus
Experiment: Open TG-GATES - Regimen: Single
Format: toxicity, organism-based, Sprague-Dawley
Design: regimen Single, gender Male, age 6 weeks
Settings: in vivo, po, route gavage; for gamma-GTP / ALP / ALT / AST / BUN / CRE / DBIL / GLC / IP / K / LDH / Na / PL / RALB / TBIL / TC / TG / TP: tissue Plasma; for APTT / Bas / Eos / Fbg / Hb / Ht / Lym / MCHC / MCV / Mono / Neu / PT / Plat / RBC / Ret / WBC: tissue Blood; for KIDNEY_L / KIDNEY_R / KIDNEY_TOTAL: tissue Kidney; for LIVER: tissue Liver
[1] = 300 mg/kg, 24 h, dose level Low

C#C[C@]1(O)CC[C@H]2[C@@H]3CCC4=Cc5oncc5C[C@]4(C)[C@H]3CC[C@@]21C [DANAZOL]
gamma-GTP (0 mg/kg, 24 h, dose level Control): 2.2 IU/L | TERMINAL_BW (300 mg/kg, 3 h, dose level Low): 219.6 g | APTT (300 mg/kg, 3 h, dose level Low): 23.3 s | Bas (300 mg/kg, 3 h, dose level Low): 0% | Eos (300 mg/kg, 3 h, dose level Low): 0.6% | Fbg (300 mg/kg, 3 h, dose level Low): 297.4 mg/dL | Hb (300 mg/kg, 3 h, dose level Low): 13.6 g/dL | Ht (300 mg/kg, 3 h, dose level Low): 40.9% | Lym (300 mg/kg, 3 h, dose level Low): 84.4% | MCHC (300 mg/kg, 3 h, dose level Low): 33.3% | MCV (300 mg/kg, 3 h, dose level Low): 62.6 fL | Mono (300 mg/kg, 3 h, dose level Low): 1.6% | Neu (300 mg/kg, 3 h, dose level Low): 12.6% | PT (300 mg/kg, 3 h, dose level Low): 15.8 s | Plat (300 mg/kg, 3 h, dose level Low): 102 x10_4/uL | RBC (300 mg/kg, 3 h, dose level Low): 654 x10_4/ul | Ret (300 mg/kg, 3 h, dose level Low): 7.2% | WBC (300 mg/kg, 3 h, dose level Low): 80 x10_2/uL | KIDNEY_L (300 mg/kg, 3 h, dose level Low): 0.9 g | KIDNEY_R (300 mg/kg, 3 h, dose level Low): 1 g | KIDNEY_TOTAL (300 mg/kg, 3 h, dose level Low): 1.9 g | LIVER (300 mg/kg, 3 h, dose level Low): 9.9 g | ALP (300 mg/kg, 3 h, dose level Low): 1338.8 IU/L | ALT (300 mg/kg, 3 h, dose level Low): 43.4 IU/L | AST (300 mg/kg, 3 h, dose level Low): 77.6 IU/L | BUN (300 mg/kg, 3 h, dose level Low): 15.4 mg/dL | CRE (300 mg/kg, 3 h, dose level Low): 0.2 mg/dL | DBIL (300 mg/kg, 3 h, dose level Low): 0 mg/dL | GLC (300 mg/kg, 3 h, dose level Low): 178.6 mg/dL | IP (300 mg/kg, 3 h, dose level Low): 8.2 mg/dL | K (300 mg/kg, 3 h, dose level Low): 4.3 meq/L | LDH (300 mg/kg, 3 h, dose level Low): 149 IU/L | Na (300 mg/kg, 3 h, dose level Low): 141.6 meq/L | PL (300 mg/kg, 3 h, dose level Low): 131.8 mg/dL | RALB (300 mg/kg, 3 h, dose level Low): 2.9 g/dL | TBIL (300 mg/kg, 3 h, dose level Low): 0.016 mg/dL | TC (300 mg/kg, 3 h, dose level Low): 68.4 mg/dL | TG (300 mg/kg, 3 h, dose level Low): 87 mg/dL | TP (300 mg/kg, 3 h, dose level Low): 5.5 g/dL | gamma-GTP (300 mg/kg, 3 h, dose level Low): 1.8 IU/L | APTT (300 mg/kg, 6 h, dose level Low): 23.9 s | Bas (300 mg/kg, 6 h, dose level Low): 0% | Eos (300 mg/kg, 6 h, dose level Low): 0.8% | Fbg (300 mg/kg, 6 h, dose level Low): 284.6 mg/dL | Hb (300 mg/kg, 6 h, dose level Low): 13 g/dL | Ht (300 mg/kg, 6 h, dose level Low): 40.1% | Lym (300 mg/kg, 6 h, dose level Low): 76.8% | MCHC (300 mg/kg, 6 h, dose level Low): 32.4% | MCV (300 mg/kg, 6 h, dose level Low): 63.6 fL | Mono (300 mg/kg, 6 h, dose level Low): 2.6% | Neu (300 mg/kg, 6 h, dose level Low): 18.8% | PT (300 mg/kg, 6 h, dose level Low): 16.7 s | Plat (300 mg/kg, 6 h, dose level Low): 120.1 x10_4/uL | RBC (300 mg/kg, 6 h, dose level Low): 631.8 x10_4/ul | Ret (300 mg/kg, 6 h, dose level Low): 7.6% | WBC (300 mg/kg, 6 h, dose level Low): 85.9 x10_2/uL | KIDNEY_L (300 mg/kg, 6 h, dose level Low): 0.9 g | KIDNEY_R (300 mg/kg, 6 h, dose level Low): 0.9 g | KIDNEY_TOTAL (300 mg/kg, 6 h, dose level Low): 1.9 g | LIVER (300 mg/kg, 6 h, dose level Low): 9 g | ALP (300 mg/kg, 6 h, dose level Low): 1332 IU/L | ALT (300 mg/kg, 6 h, dose level Low): 35.4 IU/L | AST (300 mg/kg, 6 h, dose level Low): 70.2 IU/L | BUN (300 mg/kg, 6 h, dose level Low): 10.2 mg/dL | CRE (300 mg/kg, 6 h, dose level Low): 0.2 mg/dL | DBIL (300 mg/kg, 6 h, dose level Low): 0.004 mg/dL | GLC (300 mg/kg, 6 h, dose level Low): 177.8 mg/dL | IP (300 mg/kg, 6 h, dose level Low): 9 mg/dL | K (300 mg/kg, 6 h, dose level Low): 4.3 meq/L | LDH (300 mg/kg, 6 h, dose level Low): 150.6 IU/L | Na (300 mg/kg, 6 h, dose level Low): 142.2 meq/L | PL (300 mg/kg, 6 h, dose level Low): 128.6 mg/dL | RALB (300 mg/kg, 6 h, dose level Low): 3 g/dL | TBIL (300 mg/kg, 6 h, dose level Low): 0.032 mg/dL | TC (300 mg/kg, 6 h, dose level Low): 64.2 mg/dL | TG (300 mg/kg, 6 h, dose level Low): 58 mg/dL | TP (300 mg/kg, 6 h, dose level Low): 5.3 g/dL | gamma-GTP (300 mg/kg, 6 h, dose level Low): 1.6 IU/L | TERMINAL_BW (300 mg/kg, 9 h, dose level Low): 214.6 g | APTT (300 mg/kg, 9 h, dose level Low): 22.8 s | Bas (300 mg/kg, 9 h, dose level Low): 0% | Eos (300 mg/kg, 9 h, dose level Low): 0.8% | Fbg (300 mg/kg, 9 h, dose level Low): 295.4 mg/dL | Hb (300 mg/kg, 9 h, dose level Low): 13 g/dL | Ht (300 mg/kg, 9 h, dose level Low): 39.6% | Lym (300 mg/kg, 9 h, dose level Low): 78.6% | MCHC (300 mg/kg, 9 h, dose level Low): 32.8% | MCV (300 mg/kg, 9 h, dose level Low): 61.1 fL | Mono (300 mg/kg, 9 h, dose level Low): 2.4% | Neu (300 mg/kg, 9 h, dose level Low): 17.8% | PT (300 mg/kg, 9 h, dose level Low): 16.7 s | Plat (300 mg/kg, 9 h, dose level Low): 117.4 x10_4/uL | RBC (300 mg/kg, 9 h, dose level Low): 650.2 x10_4/ul | Ret (300 mg/kg, 9 h, dose level Low): 7.4% | WBC (300 mg/kg, 9 h, dose level Low): 72.2 x10_2/uL | KIDNEY_L (300 mg/kg, 9 h, dose level Low): 1 g | KIDNEY_R (300 mg/kg, 9 h, dose level Low): 1 g | KIDNEY_TOTAL (300 mg/kg, 9 h, dose level Low): 2 g | LIVER (300 mg/kg, 9 h, dose level Low): 9.5 g | ALP (300 mg/kg, 9 h, dose level Low): 1341.8 IU/L | ALT (300 mg/kg, 9 h, dose level Low): 35.8 IU/L | AST (300 mg/kg, 9 h, dose level Low): 66.2 IU/L | BUN (300 mg/kg, 9 h, dose level Low): 10.8 mg/dL | CRE (300 mg/kg, 9 h, dose level Low): 0.1 mg/dL | DBIL (300 mg/kg, 9 h, dose level Low): 0.002 mg/dL | GLC (300 mg/kg, 9 h, dose level Low): 185.8 mg/dL | IP (300 mg/kg, 9 h, dose level Low): 9.8 mg/dL | K (300 mg/kg, 9 h, dose level Low): 4.3 meq/L | LDH (300 mg/kg, 9 h, dose level Low): 132 IU/L | Na (300 mg/kg, 9 h, dose level Low): 142.4 meq/L | PL (300 mg/kg, 9 h, dose level Low): 109.4 mg/dL | RALB (300 mg/kg, 9 h, dose level Low): 2.9 g/dL | TBIL (300 mg/kg, 9 h, dose level Low): 0.024 mg/dL | TC (300 mg/kg, 9 h, dose level Low): 54.2 mg/dL | TG (300 mg/kg, 9 h, dose level Low): 57.2 mg/dL | TP (300 mg/kg, 9 h, dose level Low): 5.3 g/dL | gamma-GTP (300 mg/kg, 9 h, dose level Low): 1.8 IU/L | TERMINAL_BW [1]: 226.8 g | APTT [1]: 23.3 s | Bas [1]: 0% | Eos [1]: 0.6% | Fbg [1]: 307.6 mg/dL | Hb [1]: 13.2 g/dL | Ht [1]: 40.1% | Lym [1]: 81.8% | MCHC [1]: 32.9% | MCV [1]: 62.6 fL | Mono [1]: 2.2% | Neu [1]: 14.6% | PT [1]: 17 s | Plat [1]: 116.4 x10_4/uL | RBC [1]: 639.6 x10_4/ul | Ret [1]: 7.3% | WBC [1]: 87.1 x10_2/uL | KIDNEY_L [1]: 1 g | KIDNEY_R [1]: 1.1 g | KIDNEY_TOTAL [1]: 2.1 g | LIVER [1]: 11.5 g | ALP [1]: 1893.6 IU/L | ALT [1]: 37.4 IU/L | AST [1]: 66.4 IU/L | BUN [1]: 15.8 mg/dL | CRE [1]: 0.2 mg/dL | DBIL [1]: 0 mg/dL | GLC [1]: 187.6 mg/dL | IP [1]: 7.2 mg/dL | K [1]: 4.3 meq/L | LDH [1]: 167 IU/L | Na [1]: 141.2 meq/L | PL [1]: 130 mg/dL | RALB [1]: 3.1 g/dL | TBIL [1]: 0.002 mg/dL | TC [1]: 48.2 mg/dL | TG [1]: 223.8 mg/dL | TP [1]: 5.6 g/dL | gamma-GTP [1]: 1.4 IU/L
